# How the values were obtained:
# Test in all cases: relative viability (nuclei count vs DMSO), 5 days (fraction); higher = more cells survive
# [1] = compound: NC(=O)c1ccc(N(C(N)=O)c2c(F)cccc2F)nc1-c1ccc(F)cc1F [VX-702] + Nc1nc2[nH]cc(CCc3ccc(C(=O)N[C@@H](CCC(=O)O)C(=O)O)cc3)c2c(=O)[nH]1 [Pemetrexed] (partner 0.2 µM)
# Outline: (§1)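 Relative viability equals treated-well nuclei counts divided by vehicle-well nuclei counts. Counts came from 4× images of lung cancer cell lines grown in 1536-well plates for 5 days after pin-tool dosing on the day after seeding. Dosing used one drug alone or a fixed anchor-drug dose plus five library-drug doses (not always all listed) in √10 steps, and values are medians of duplicate plates.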
# [2] = compound: CC(C)(C)c1nc(-c2cccc(NS(=O)(=O)c3c(F)cccc3F)c2F)c(-c2ccnc(N)n2)s1 [Dabrafenib] + C[C@]1(O)C[C@@H](c2nc(-c3ccc4ccc(-c5ccccc5)nc4c3)c3c(N)nccn32)C1 [Linsitinib] (partner 1 µM)
# Outline: as §1
# [3] = compound: NC(=O)c1ccc(N(C(N)=O)c2c(F)cccc2F)nc1-c1ccc(F)cc1F [VX-702] + C[C@@H](Oc1cc(-c2cnn(C3CCNCC3)c2)cnc1N)c1c(Cl)ccc(F)c1Cl [Crizotinib] (partner 1 µM)
# Outline: as §1
# [4] = compound: NC(=O)c1ccc(N(C(N)=O)c2c(F)cccc2F)nc1-c1ccc(F)cc1F [VX-702] + O=C(c1cc(Cc2n[nH]c(=O)c3ccccc23)ccc1F)N1CCN(C(=O)C2CC2)CC1 [Olaparib] (partner 8 µM)
# Outline: as §1
Cell Line,relative viability ([1]; first compound 0.02 µM),relative viability ([1]; first compound 0.2 µM),relative viability ([1]; first compound 0.6325 µM),relative viability ([1]; first compound 2 µM),relative viability ([2]; first compound 0.003 µM),relative viability ([2]; first compound 0.009487 µM),relative viability ([2]; first compound 0.03 µM),relative viability ([2]; first compound 0.09487 µM),relative viability ([2]; first compound 0.3 µM),relative viability ([3]; first compound 0.02 µM),relative viability ([3]; first compound 0.2 µM),relative viability ([3]; first compound 0.6325 µM),relative viability ([3]; first compound 2 µM),relative viability ([4]; first compound 0.02 µM),relative viability ([4]; first compound 0.2 µM),relative viability ([4]; first compound 0.6325 µM),relative viability ([4]; first compound 2 µM)
NCI-H1437,0.345,0.261,0.318,0.324,1.03,0.989,1.07,0.974,1.07,0.916,0.871,0.873,1.18,0.656,0.633,0.643,0.691
CAL-12T,0.982,1.22,1.14,1.29,0.744,0.901,0.786,0.777,0.963,0.636,0.564,0.756,0.651,0.798,0.69,0.711,0.697
NCI-H1651,0.523,0.57,0.559,0.566,0.962,1.01,0.833,0.971,0.989,0.79,0.889,0.831,0.935,0.178,0.174,0.183,0.151
RERF-LC-KJ,0.504,0.6,0.484,0.454,0.876,0.989,0.871,0.83,1.01,0.876,0.849,0.825,0.875,1.01,0.854,0.921,0.901
EKVX,0.463,0.345,0.38,0.431,0.997,1.17,0.933,0.866,1.13,0.774,0.969,0.905,1.2,0.726,0.869,0.906,0.974
EMC-BAC-2,0.472,0.436,0.407,0.416,0.773,0.825,0.616,0.838,0.851,0.779,0.678,0.791,0.698,0.526,0.483,0.482,0.441
PC-3 [JPC-3],1.23,1.08,1.23,1.07,0.943,0.977,0.955,0.964,0.978,0.974,0.966,1.03,1.04,1.2,1.14,1.16,1.31
HCC-78,0.874,0.883,0.901,0.889,,0.694,0.442,0.45,0.628,0.348,0.327,0.321,0.341,0.743,0.671,0.83,0.867
NCI-H647,0.174,0.172,0.133,0.144,,1.04,1.21,1.17,1.01,1.14,1,1.12,1.05,0.752,0.509,0.427,0.744
NCI-H1666,0.869,0.869,0.89,0.808,0.841,,0.846,1.03,0.931,1.1,0.923,1.03,1.12,0.804,0.754,0.826,0.733
NCI-H3122,0.21,0.194,0.199,0.187,0.943,1.02,1.01,1.01,1.04,0.268,0.238,0.251,0.258,0.636,0.61,0.66,0.555
NCI-H1395,0.864,0.851,0.831,1.01,,1.07,1.05,1.07,0.854,,,,,0.447,0.46,0.502,0.448
Calu-6,,,,,0.939,0.951,0.72,0.737,0.675,0.847,0.86,0.764,0.996,,0.597,0.65,0.64
NCI-H2342,0.771,0.857,0.796,0.796,,,,,,,,,,0.401,0.457,0.475,0.466
A549,,,,,,0.549,0.374,0.697,0.568,0.754,0.812,0.739,1.08,0.444,0.243,0.374,0.114
NCI-H1563,0.751,0.785,0.601,0.639,1.16,1.18,1.16,1.2,1.39,0.848,0.875,0.83,0.865,,,,
NCI-H1299,,,,,0.941,0.959,0.798,0.743,0.625,1.07,0.97,0.942,1.07,0.982,0.924,0.937,0.862
NCI-H727,,,,,,0.312,0.29,0.367,0.465,0.826,0.745,0.841,0.961,0.67,0.789,0.72,0.555
NCI-H1648,0.737,0.617,0.75,0.818,,,,,,,,,,0.817,0.851,0.689,0.781
NCI-H1793,0.884,,0.806,1.06,0.832,1.53,0.702,0.781,0.914,,,,,0.939,,0.858,1.01
NCI-H1703,,,,,0.335,1.12,0.75,0.834,1.18,0.645,0.585,0.608,0.78,0.415,0.361,0.315,0.47
EBC-1,,,,,0.854,0.867,0.679,0.378,0.309,0.191,0.18,0.158,0.201,0.82,0.702,0.653,0.745

# From the supplement of paper PMC10307832
